Data reported in ChEMBL document CHEMBL1201862, “PubChem BioAssay data set” (2004).
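Method: 48-hour compound exposure of cells in 96-well plates, five concentrations, linear interpolation of endpoints. GI50 is the concentration that inhibits growth by half.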 Activity calls are given as the source filed them. No stated cut-off is given here; in the data, active = GI50 up to about 1.1 µM and inactive = higher. Peptide text beside a SMILES is read from it. * marks the point of attachment. Cbz = O=C(OCc1ccccc1)*; NHNH2 = NN*

Columns and labels:
Test in all cases: inhibition of tumour cell growth, NCI panel, 48 h
HT-29 = tested on: HT-29
OVCAR-3 = tested on: OVCAR-3
TK-10 = tested on: TK-10
RXF 393 = tested on: RXF 393
HOP-92 = tested on: HOP-92
A498 = tested on: A498
MOLT-4 = tested on: MOLT-4
HCT-15 = tested on: HCT-15
IGROV-1 = tested on: IGROV-1
HCT-116 = tested on: HCT-116
SN12C = tested on: SN12C
U-251 = tested on: U-251
786-0 = tested on: 786-0
SF-539 = tested on: SF-539
BT-549 = tested on: BT-549
MDA-N = tested on: MDA-N
UO-31 = tested on: UO-31
OVCAR-5 = tested on: OVCAR-5
SR = tested on: SR

| SMILES | GI50 (HT-29) | GI50 (OVCAR-3) | GI50 (TK-10) | GI50 (RXF 393) | GI50 (HOP-92) | GI50 (A498) | GI50 (MOLT-4) | GI50 (HCT-15) | GI50 (IGROV-1) | GI50 (HCT-116) | GI50 (SN12C) | GI50 (U-251) | GI50 (786-0) | GI50 (SF-539) | GI50 (BT-549) | GI50 (MDA-N) | GI50 (UO-31) | GI50 (OVCAR-5) | GI50 (SR) |
| --- | --- | --- | --- | --- | --- | --- | --- | --- | --- | --- | --- | --- | --- | --- | --- | --- | --- | --- | --- |
| NN/C(=N\S(=O)(=O)c1ccc(-c2ccccn2)s1)Nc1ccc(Cl)cc1 | > 100 µM (inactive) | 73.8 µM (inactive) | > 100 µM (inactive) | 30.5 µM (inactive) | 68.5 µM (inactive) | > 100 µM (inactive) | 32.7 µM (inactive) | > 100 µM | > 100 µM (inactive) | > 100 µM (inactive) | > 100 µM (inactive) | 44.2 µM (inactive) | 29.2 µM (inactive) | 38.9 µM (inactive) | > 100 µM (inactive) | > 100 µM (inactive) | 43.9 µM (inactive) | > 100 µM (inactive) | – |
| O=C1NC(N2CCCCC2)=N/C1=C\c1cccs1 | > 100 µM (inactive) | > 100 µM (inactive) | > 100 µM (inactive) | > 100 µM (inactive) | > 100 µM (inactive) | – | > 100 µM (inactive) | > 100 µM | > 100 µM (inactive) | > 100 µM (inactive) | > 100 µM (inactive) | > 100 µM (inactive) | > 100 µM (inactive) | > 100 µM (inactive) | > 100 µM (inactive) | > 100 µM (inactive) | > 100 µM (inactive) | > 100 µM (inactive) | > 100 µM (inactive) |
| COC(=O)CC(NC(=O)OCc1ccccc1)C(=O)NC(CC(=O)OC)C(=O)NC(CC(=O)OC)C(=O)NC(CC(=O)OC)C(=O)NC(CC(=O)OC)C(=O)NC(CC(=O)OC)C(=O)NN (centres undefined) (Cbz-D(OMe)D(OMe)D(OMe)D(OMe)D(OMe)D(OMe)-NHNH2; configuration not given here) | > 100 µM (inactive) | – | > 100 µM (inactive) | – | > 100 µM (inactive) | – | > 100 µM (inactive) | > 100 µM | > 100 µM (inactive) | > 100 µM (inactive) | > 100 µM (inactive) | > 100 µM (inactive) | > 100 µM (inactive) | > 100 µM (inactive) | > 100 µM (inactive) | > 100 µM (inactive) | > 100 µM (inactive) | > 100 µM (inactive) | > 100 µM (inactive) |
| COC(=O)CC(c1cn(S(=O)(=O)c2ccc(C)cc2)c2ccccc12)C1C[C@@H](C(=O)OC)N(C(=O)OC(C)(C)C)C1=O (some centres undefined) | 26.7 µM (inactive) | 31 µM (inactive) | > 100 µM (inactive) | 9.79 µM (inactive) | – | 71.4 µM (inactive) | 3.91 µM (inactive) | 26.5 µM | 16.4 µM (inactive) | 14.9 µM (inactive) | 32.1 µM (inactive) | 33.9 µM (inactive) | 63.8 µM (inactive) | 7.66 µM (inactive) | > 100 µM (inactive) | 55.8 µM (inactive) | 45.6 µM (inactive) | > 100 µM (inactive) | 3.08 µM (inactive) |
| CCOC(=O)C(Cc1ccc(OC(=O)c2ccc(OC)cc2)cc1)NC(=O)C(F)(F)F (centres undefined) | > 100 µM (inactive) | > 100 µM (inactive) | > 100 µM (inactive) | 27.9 µM (inactive) | 45.8 µM (inactive) | > 100 µM (inactive) | > 100 µM (inactive) | > 100 µM | 45.3 µM (inactive) | > 100 µM (inactive) | > 100 µM (inactive) | 69.3 µM (inactive) | > 100 µM (inactive) | > 100 µM (inactive) | > 100 µM (inactive) | > 100 µM (inactive) | > 100 µM (inactive) | > 100 µM (inactive) | – |
| Cc1ccc(S(=O)(=O)NC(=O)NCCC(=O)O)cc1 | > 100 µM (inactive) | – | > 100 µM (inactive) | > 100 µM (inactive) | > 100 µM (inactive) | – | > 100 µM (inactive) | 21.4 µM | > 100 µM (inactive) | > 100 µM (inactive) | > 100 µM (inactive) | > 100 µM (inactive) | > 100 µM (inactive) | > 100 µM (inactive) | 25.8 µM (inactive) | > 100 µM (inactive) | > 100 µM (inactive) | > 100 µM (inactive) | > 100 µM (inactive) |
| CCN(CC)c1nc(N(C)C)c2ccccc2n1 | 11.6 µM (inactive) | – | 44.7 µM (inactive) | 24 µM (inactive) | 43.3 µM (inactive) | – | 7.66 µM (inactive) | 33.3 µM | 37 µM (inactive) | 10.8 µM (inactive) | 20.9 µM (inactive) | 28.4 µM (inactive) | 27.9 µM (inactive) | 24.3 µM (inactive) | 48.1 µM (inactive) | 16.5 µM (inactive) | 19.3 µM (inactive) | 25.5 µM (inactive) | 7.78 µM (inactive) |
| CCc1n[nH]c(=O)n1/N=C/c1ccccc1O | – | > 100 µM (inactive) | > 100 µM (inactive) | > 100 µM (inactive) | > 100 µM (inactive) | – | > 100 µM (inactive) | > 100 µM | 64.9 µM (inactive) | > 100 µM (inactive) | > 100 µM (inactive) | > 100 µM (inactive) | > 100 µM (inactive) | > 100 µM (inactive) | > 100 µM (inactive) | > 100 µM (inactive) | > 100 µM (inactive) | > 100 µM (inactive) | > 100 µM (inactive) |
